The record followed here is patent EP4745135A1 (Gluetacs Therapeutics (Shanghai) Co., Ltd., priority 2023, dated 2025).

Test [1] addresses T1, CK1α (Homo sapiens, UniProt P48729+Q96SW2).
T1 construct: effects of the compounds of the present disclosure on the expression of target proteins in cells; endogenous in cells; host or cells: human PBMCs (Milecell Biotechnologies)
Nature of the test: Western blot, degradation of substrate protein in hPBMCs. In kind it is cell-based. The conditions noted are these: Western blot, 24 hours of compound treatment, compounds tested at 50 nM and 500 nM (concentration for the table not stated). In general terms: Immunoblotting shows a protein as a band on a membrane.

For test [2], the target named is T2, IKZF1 (Homo sapiens, UniProt Q13422+Q96SW2).
T2 construct: effects of the compounds of the present disclosure on the expression of target proteins in cells; endogenous in cells; host or cells: human PBMCs (Milecell Biotechnologies)
T2 sequence (Q13422 whole entry): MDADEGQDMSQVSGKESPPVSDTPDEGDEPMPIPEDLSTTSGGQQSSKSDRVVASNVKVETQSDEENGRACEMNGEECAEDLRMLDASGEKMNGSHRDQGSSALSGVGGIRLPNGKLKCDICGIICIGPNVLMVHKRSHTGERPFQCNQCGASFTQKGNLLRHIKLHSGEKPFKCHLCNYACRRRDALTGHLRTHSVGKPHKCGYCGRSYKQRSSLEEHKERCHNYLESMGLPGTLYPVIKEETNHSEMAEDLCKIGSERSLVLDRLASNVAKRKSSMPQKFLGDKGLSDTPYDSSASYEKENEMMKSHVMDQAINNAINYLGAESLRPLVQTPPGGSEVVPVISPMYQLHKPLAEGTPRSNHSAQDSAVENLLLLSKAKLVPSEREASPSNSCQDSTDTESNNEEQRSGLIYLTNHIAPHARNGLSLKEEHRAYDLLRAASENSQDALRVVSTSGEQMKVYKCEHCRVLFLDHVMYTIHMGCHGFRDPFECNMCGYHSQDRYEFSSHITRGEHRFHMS
T2 sequence (Q96SW2 whole entry): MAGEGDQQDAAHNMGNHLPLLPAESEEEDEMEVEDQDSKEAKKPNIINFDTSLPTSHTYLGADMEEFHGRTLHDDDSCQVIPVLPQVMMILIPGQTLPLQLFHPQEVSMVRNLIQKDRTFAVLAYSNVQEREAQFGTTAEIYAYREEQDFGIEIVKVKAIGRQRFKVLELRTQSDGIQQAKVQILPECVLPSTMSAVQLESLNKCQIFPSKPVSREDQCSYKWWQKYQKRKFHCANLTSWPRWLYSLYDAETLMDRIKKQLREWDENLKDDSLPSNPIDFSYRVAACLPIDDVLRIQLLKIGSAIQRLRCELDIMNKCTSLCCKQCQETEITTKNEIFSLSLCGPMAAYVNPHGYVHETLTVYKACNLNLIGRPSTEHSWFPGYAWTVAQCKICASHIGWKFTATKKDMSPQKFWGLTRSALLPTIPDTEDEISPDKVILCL
T2 sequence (Q16531 whole entry partner): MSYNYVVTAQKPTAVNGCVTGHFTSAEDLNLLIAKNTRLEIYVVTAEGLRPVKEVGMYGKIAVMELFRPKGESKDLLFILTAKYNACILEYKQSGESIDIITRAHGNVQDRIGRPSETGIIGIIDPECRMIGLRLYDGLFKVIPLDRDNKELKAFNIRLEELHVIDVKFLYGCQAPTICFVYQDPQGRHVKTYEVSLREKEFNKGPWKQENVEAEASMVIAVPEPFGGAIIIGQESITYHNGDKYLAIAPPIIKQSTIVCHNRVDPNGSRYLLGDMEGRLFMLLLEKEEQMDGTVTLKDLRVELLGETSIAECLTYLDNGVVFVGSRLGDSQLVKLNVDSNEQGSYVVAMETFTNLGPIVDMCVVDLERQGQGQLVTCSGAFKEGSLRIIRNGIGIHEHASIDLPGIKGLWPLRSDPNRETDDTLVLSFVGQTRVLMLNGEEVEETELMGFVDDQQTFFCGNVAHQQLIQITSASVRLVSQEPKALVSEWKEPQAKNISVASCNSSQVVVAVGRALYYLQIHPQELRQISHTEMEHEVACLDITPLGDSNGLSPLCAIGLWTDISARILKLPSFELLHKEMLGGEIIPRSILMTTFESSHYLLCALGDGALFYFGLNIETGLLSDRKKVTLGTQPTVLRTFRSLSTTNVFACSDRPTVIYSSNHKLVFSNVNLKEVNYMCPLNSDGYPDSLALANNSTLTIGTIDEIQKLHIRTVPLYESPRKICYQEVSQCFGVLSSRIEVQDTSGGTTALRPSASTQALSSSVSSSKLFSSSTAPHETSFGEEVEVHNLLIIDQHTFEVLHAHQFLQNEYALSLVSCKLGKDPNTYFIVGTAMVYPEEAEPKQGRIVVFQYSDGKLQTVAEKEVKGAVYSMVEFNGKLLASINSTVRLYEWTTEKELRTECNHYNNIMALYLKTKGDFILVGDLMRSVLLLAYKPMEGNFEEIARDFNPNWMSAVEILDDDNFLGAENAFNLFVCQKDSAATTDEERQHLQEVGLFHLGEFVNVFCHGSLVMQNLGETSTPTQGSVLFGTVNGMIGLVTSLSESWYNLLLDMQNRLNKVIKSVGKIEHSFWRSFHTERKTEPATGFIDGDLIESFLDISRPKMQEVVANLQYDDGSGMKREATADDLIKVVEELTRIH
The test is described as above. Particulars: Western blot, 24 hours of compound treatment, compounds tested at 50 nM and 500 nM (concentration for the table not stated). In kind it is cell-based.

For test [3], the target named is T3, IKZF2 (Homo sapiens, UniProt Q96SW2+Q9UKS7).
T3 construct: effects of the compounds of the present disclosure on the expression of target proteins in cells; endogenous in cells; host or cells: human PBMCs (Milecell Biotechnologies)
T3 sequence (Q9UKS7 whole entry): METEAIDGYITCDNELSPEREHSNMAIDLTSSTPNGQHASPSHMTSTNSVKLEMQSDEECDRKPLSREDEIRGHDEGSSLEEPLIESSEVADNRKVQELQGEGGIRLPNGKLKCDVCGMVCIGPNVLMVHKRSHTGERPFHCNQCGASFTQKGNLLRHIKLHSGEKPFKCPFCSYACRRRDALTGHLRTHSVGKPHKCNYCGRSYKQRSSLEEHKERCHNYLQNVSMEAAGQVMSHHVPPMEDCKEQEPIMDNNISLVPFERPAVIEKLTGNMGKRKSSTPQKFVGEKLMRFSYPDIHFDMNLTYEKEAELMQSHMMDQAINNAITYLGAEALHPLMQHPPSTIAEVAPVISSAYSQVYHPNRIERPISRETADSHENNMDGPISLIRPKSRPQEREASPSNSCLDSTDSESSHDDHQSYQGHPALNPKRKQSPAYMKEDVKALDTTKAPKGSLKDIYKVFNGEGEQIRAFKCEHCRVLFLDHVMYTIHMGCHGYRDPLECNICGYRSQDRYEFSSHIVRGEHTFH
T3 sequence (Q96SW2 whole entry): as the sequence (Q96SW2 whole entry) above
T3 sequence (Q16531 whole entry partner): as the sequence (Q16531 whole entry partner) above
Described as above. The test is classed as cell-based. The conditions noted are these: Western blot, 24 hours of compound treatment, compounds tested at 50 nM and 500 nM (concentration for the table not stated).

Test [4] addresses T4, IKZF3 (Homo sapiens, UniProt Q96SW2+Q9UKT9).
T4 construct: effects of the compounds of the present disclosure on the expression of target proteins in cells; endogenous in cells; host or cells: human PBMCs (Milecell Biotechnologies)
Described as above. The test is classed as cell-based. Particulars: Western blot, 24 hours of compound treatment, compounds tested at 50 nM and 500 nM (concentration for the table not stated).

Test [5] addresses T5, WEE1 (Homo sapiens, UniProt P30291+Q96SW2).
T5 construct: effects of the compounds of the present disclosure on the expression of target proteins in cells; endogenous in cells; host or cells: human PBMCs (Milecell Biotechnologies)
Described as above. In kind it is cell-based. The conditions noted are these: Western blot, 24 hours of compound treatment, compounds tested at 50 nM and 500 nM (concentration for the table not stated).

The subject of test [6] is GSPT1. The test is described as above. The conditions noted are these: Western blot, 24 hours of compound treatment, compounds tested at 50 nM and 500 nM (concentration for the table not stated). In kind it is cell-based, Human.
The target of test [7] is T6, human Cereblon WT GST-tagged protein (Homo sapiens, UniProt Q96SW2).
T6 construct: purchased CISBIO 64BDCRBNPEH
T6 sequence (Q96SW2 whole entry): as the sequence (Q96SW2 whole entry) above
Nature of the test: CRBN-binding affinity, HTRF (CEREBLON BINDING kit). The conditions noted are these: for inhibition at 0.5 µM: read-out: Inhibition Rate at 0.5 µM (%); for inhibition at 2 µM: read-out: Inhibition Rate at 2 µM (%). Background: TR-FRET usually uses a lanthanide donor and a delayed reading to cut background.

T4 sequence (Q9UKT9 whole entry): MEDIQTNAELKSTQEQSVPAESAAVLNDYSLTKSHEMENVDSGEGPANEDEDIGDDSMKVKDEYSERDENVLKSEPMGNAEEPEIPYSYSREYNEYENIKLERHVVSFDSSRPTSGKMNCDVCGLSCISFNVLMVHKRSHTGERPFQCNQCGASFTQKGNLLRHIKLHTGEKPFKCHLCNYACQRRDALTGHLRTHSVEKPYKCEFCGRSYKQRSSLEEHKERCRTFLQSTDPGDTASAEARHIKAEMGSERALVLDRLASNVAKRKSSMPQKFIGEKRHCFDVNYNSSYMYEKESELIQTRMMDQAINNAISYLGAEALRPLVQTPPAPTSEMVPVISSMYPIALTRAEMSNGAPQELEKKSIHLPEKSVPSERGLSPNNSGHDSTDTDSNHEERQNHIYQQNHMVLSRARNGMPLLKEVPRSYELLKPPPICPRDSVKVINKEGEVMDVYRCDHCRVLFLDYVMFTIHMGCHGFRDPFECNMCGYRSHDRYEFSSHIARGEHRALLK
T4 sequence (Q96SW2 whole entry): as the sequence (Q96SW2 whole entry) above
T4 sequence (Q16531 whole entry partner): as the sequence (Q16531 whole entry partner) above
T1 sequence (P48729 whole entry): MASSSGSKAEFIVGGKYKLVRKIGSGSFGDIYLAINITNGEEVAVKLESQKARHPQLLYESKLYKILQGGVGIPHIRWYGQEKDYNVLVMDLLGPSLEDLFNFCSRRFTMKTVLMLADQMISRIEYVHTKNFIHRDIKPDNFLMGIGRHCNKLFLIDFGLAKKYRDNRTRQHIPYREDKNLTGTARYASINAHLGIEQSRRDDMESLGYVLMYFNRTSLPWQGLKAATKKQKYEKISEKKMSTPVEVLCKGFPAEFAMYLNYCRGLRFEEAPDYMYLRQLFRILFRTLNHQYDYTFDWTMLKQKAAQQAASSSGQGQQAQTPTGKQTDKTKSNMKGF
T1 sequence (Q96SW2 whole entry): as the sequence (Q96SW2 whole entry) above
T1 sequence (Q16531 whole entry partner): as the sequence (Q16531 whole entry partner) above
T5 sequence (P30291 whole entry): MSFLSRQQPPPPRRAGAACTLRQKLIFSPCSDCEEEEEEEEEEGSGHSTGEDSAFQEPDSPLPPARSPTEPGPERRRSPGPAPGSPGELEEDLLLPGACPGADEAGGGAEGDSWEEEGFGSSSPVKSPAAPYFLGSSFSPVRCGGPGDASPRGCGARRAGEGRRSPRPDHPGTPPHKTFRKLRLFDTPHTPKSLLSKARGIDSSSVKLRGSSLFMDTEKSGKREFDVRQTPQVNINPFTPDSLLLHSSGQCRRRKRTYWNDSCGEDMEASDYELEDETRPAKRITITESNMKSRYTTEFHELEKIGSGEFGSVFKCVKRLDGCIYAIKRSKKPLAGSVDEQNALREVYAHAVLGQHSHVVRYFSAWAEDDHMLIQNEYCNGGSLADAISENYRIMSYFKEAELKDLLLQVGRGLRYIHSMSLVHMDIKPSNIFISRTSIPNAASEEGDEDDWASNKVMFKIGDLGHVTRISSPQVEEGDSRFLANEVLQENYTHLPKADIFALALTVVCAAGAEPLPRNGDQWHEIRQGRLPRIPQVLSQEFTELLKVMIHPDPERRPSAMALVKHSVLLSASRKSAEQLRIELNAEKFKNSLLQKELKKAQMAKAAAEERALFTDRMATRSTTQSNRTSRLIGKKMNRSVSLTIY
T5 sequence (Q96SW2 whole entry): as the sequence (Q96SW2 whole entry) above
T5 sequence (Q16531 whole entry partner): as the sequence (Q16531 whole entry partner) above

One may read the inhibition as the relative decrease from the control value, in per cent. As for `O=C1CCC(N2Cc3c(CN4CCN(c5cc(F)ccc5F)CC4)cccc3C2=S)C(=O)N1` (centres unmarked) [GT-08593, 3-(4-((4-(2,5-difluorophenyl)piperazin-1-yl)methyl)-1-thioxoisoindolin-2-yl)piperidine-2,6-dione], the “CK1α substrate protein remaining %” value in test [1] is recorded as “B (80%< substrate protein remaining %≤ 100%)”. In addition, in test [2], the “IKZF 1 substrate protein remaining %” value is on record as “B (80%< substrate protein remaining %≤ 100%)”. The “IKZF2 substrate protein remaining %” value in test [3] is recorded as “B (80%< substrate protein remaining %≤ 100%)”. Moreover, the “IKZF3 substrate protein remaining %” value in test [4] is on record as “B (80%< substrate protein remaining %≤ 100%)”. Also, the “Wee1 substrate protein remaining %” value in test [5] is listed as “A (0% ≤ substrate protein remaining % ≤ 80%)”. In test [6], the “GSPT1 substrate protein remaining %” value is recorded as “B (80%< substrate protein remaining %≤ 100%)”. In addition, in test [7], the inhibition at 0.5 µM fell in the range of 40 to 53% and the inhibition at 2 µM fell in the range of 60 to 80%.
As for `O=C1CCC(N2Cc3cc(CN4CCN(C(c5ccccc5)c5cccnc5)CC4)ccc3C2=S)C(=O)N1` (centres unmarked) [GT-07732, 3-(5-((4-(phenyl(pyridin-3-yl)methyl)piperazin-1-yl)methyl)-1-thioxoisoindolin-2-yl)piperidine-2,6-dione], the “CK1α substrate protein remaining %” value in test [1] is on record as “B (80%< substrate protein remaining %≤ 100%)”. The “IKZF 1 substrate protein remaining %” value in test [2] is given as “B (80%< substrate protein remaining %≤ 100%)”. Moreover, in test [3], the “IKZF2 substrate protein remaining %” value is recorded as “B (80%< substrate protein remaining %≤ 100%)”. For the same molecule, the “IKZF3 substrate protein remaining %” value in test [4] is recorded as “A (0% ≤ substrate protein remaining % ≤ 80%)”. Further, the “Wee1 substrate protein remaining %” value in test [5] was “A (0% ≤ substrate protein remaining % ≤ 80%)”. For the same molecule, the “GSPT1 substrate protein remaining %” value in test [6] was “A (0% ≤ substrate protein remaining % ≤ 80%)”. In addition, in test [7], the inhibition at 0.5 µM fell in the range of 53 to 60% and the inhibition at 2 µM fell in the range of 80 to 100%.
For `O=C1CCC(N2Cc3c(CN4CCN(c5cnccn5)CC4)cccc3C2=S)C(=O)N1` (centres unmarked) [GT-08813, 3-(4-((4-(pyrazin-2-yl)piperazin-1-yl)methyl)-1-thioxoisoindolin-2-yl)piperidine-2,6-dione], in test [1], the “CK1α substrate protein remaining %” value is “B (80%< substrate protein remaining %≤ 100%)”. Further, the “IKZF 1 substrate protein remaining %” value in test [2] was “B (80%< substrate protein remaining %≤ 100%)”. Besides, the “IKZF2 substrate protein remaining %” value in test [3] was “B (80%< substrate protein remaining %≤ 100%)”. Further, the “IKZF3 substrate protein remaining %” value in test [4] is on record as “B (80%< substrate protein remaining %≤ 100%)”. In test [5], the “Wee1 substrate protein remaining %” value is reported as “A (0% ≤ substrate protein remaining % ≤ 80%)”. The “GSPT1 substrate protein remaining %” value in test [6] is listed as “B (80%< substrate protein remaining %≤ 100%)”. For the same molecule, in test [7], the inhibition at 0.5 µM fell in the range of 60 to 80% and the inhibition at 2 µM fell in the range of 80 to 100%.
For the molecule `O=C1CCC(N2Cc3c(CN4CCN(c5ncccc5Cl)CC4)cccc3C2=S)C(=O)N1` (centres unmarked) [GT-08696, 3-(4-((4-(3-chloropyridin-2-yl)piperazin-1-yl)methyl)-1-thioxoisoindolin-2-yl)piperidine-2,6-dione], the “CK1α substrate protein remaining %” value in test [1] is reported as “B (80%< substrate protein remaining %≤ 100%)”. For the same molecule, the “IKZF 1 substrate protein remaining %” value in test [2] was “B (80%< substrate protein remaining %≤ 100%)”. Besides, the “IKZF2 substrate protein remaining %” value in test [3] is reported as “B (80%< substrate protein remaining %≤ 100%)”. In addition, the “IKZF3 substrate protein remaining %” value in test [4] is listed as “B (80%< substrate protein remaining %≤ 100%)”. In addition, the “Wee1 substrate protein remaining %” value in test [5] is “A (0% ≤ substrate protein remaining % ≤ 80%)”. Besides, the “GSPT1 substrate protein remaining %” value in test [6] is reported as “B (80%< substrate protein remaining %≤ 100%)”. In addition, in test [7], the inhibition at 0.5 µM lay in the range of 60 to 80% and the inhibition at 2 µM is 80 to 100%.
